Experimental data: patent publication US11141413B2, “Method of treating renal cell carcinoma using N-(4-(6,7-dimethoxyquinolin-4-yloxy)phenyl)-N′-(4-fluorophenyl)cyclopropane-1,1-dicarboxamide, (2S)-hydroxybutanedioate” (Exelixis, Inc., priority 2016, dated 2021)

Columns and labels:
mouse = test: In vivo mouse micronucleus assay
male and female rats = details: rat, in vivo
VEGFR-3 = VEGFR-3 (Homo sapiens, UniProt P35916); test: In vitro biochemical and/or cellular kinase assays
CYP2B6 = CYP2B6 (Homo sapiens, UniProt P20813); test: Metabolic pathways in vitro: effect of CYP inhibition on cabozantinib metabolite formation; assay type: in vitro ADME
CYP2D6 = CYP2D6 (Homo sapiens, UniProt P10635); test: as above; assay type: in vitro ADME
ROS1 = ROS1 (Homo sapiens, UniProt P08922); test: In vitro biochemical and/or cellular kinase assays
juvenile rats = test: Juvenile rat toxicity study; assay type: in vivo
Method: […]. Mortalities occurred at doses equal and greater than 1 mg/kg/day (approximately 0.16 times the clinical dose of 60 mg/day based on body surface area).

CYP2E1 = CYP2E1 (Homo sapiens, UniProt P05181); test: Metabolic pathways in vitro: effect of CYP inhibition on cabozantinib metabolite formation; assay type: in vitro ADME
pregnant rabbits = test: Embryo-fetal development study in pregnant rabbits; assay type: in vivo, rabbit; details: daily oral administration throughout organogenesis
[1] = system: female rats and offspring; test: Pre- and postnatal study in rats; details: oral, gestation day 10 through postnatal day 20
patients = test: Cabozantinib clinical program: serious events and overdosage case; assay type: in vivo, human
CYP1A1 mRNA = test: In vitro CYP induction by cabozantinib; assay type: in vitro ADME
[2] = system: metastatic renal cell carcinoma (mRCC); test: CABOSUN (ALLIANCE A031203) trial, cabozantinib vs sunitinib as initial targeted therapy
Method: Pts were randomized 1:1 to receive Cabo (60 mg QD) or Sun (50 mg QD, 4 weeks on/2 weeks off). Pts were stratified by the IMDC risk groups (intermediate vs. poor risk) and bone metastasis (yes, no). […] Secondary endpoints included OS, investigator-assessed overall response rate (ORR), and toxicity. The Kaplan-Meier product-limit estimator was used to estimate the OS between treatment arms.

[3] = Population pharmacokinetic (PopPK) model (RCC patients and healthy volunteers); assay type: in vivo, human
Method: The PopPK model was developed using nonlinear mixed effects modeling methodology (NONMEM v7.3) that incorporated 1650 measurable PK concentrations from 345 subjects (Table 10.1).
Covariates were evaluated for effects on apparent plasma clearance (CL/F) and apparent volume of distribution of the central compartment (VF) (Table 10.2).
In FIG. 10.1: • F1=fraction of dose in the first depot; • F2=fraction of dose in the second depot; • Ka=depot 1 absorption rate constant • Ka2=depot 2 absorption rate constant; • ALAG1=depot 1 absorption lag time; • ALAG2=depot 2 absorption lag time • Vc/F=apparent volume of distribution (central compartment); • Vp/F=apparent volume of distribution (peripheral compartment); • Q/F=apparent flow between plasma (central) and peripheral compartments; • CL/F=apparent plasma clearance

CYP2A6 = CYP2A6 (Homo sapiens, UniProt P11509); test: Metabolic pathways in vitro: effect of CYP inhibition on cabozantinib metabolite formation; assay type: in vitro ADME
[4] = Excretion after single 140 mg 14C-cabozantinib dose in healthy subjects; assay type: in vivo, human
Method: Approximately 81% of the total administered radioactivity was recovered within a 48-day collection period following a single 140 mg dose of an investigational ^14C-cabozantinib formulation in healthy subjects. Approximately 54% was recovered in feces and 27% in urine.

TRKB = TRKB (Homo sapiens, UniProt Q16620); test: In vitro biochemical and/or cellular kinase assays
[5] = system: renal cell carcinoma (RCC) patients; test: Exposure-response (ER) Cox proportional hazard model of progression-free survival; details: time-varying average daily cabozantinib concentration
human plasma = test: Plasma protein binding
QTc interval = details: human, in vivo
[6] = Clinical pharmacokinetics of cabozantinib (absorption, distribution, elimination); assay type: in vivo, human
Source text: […]; steady state was achieved by Day 15.

P-gp = P-gp (Homo sapiens, UniProt P08183); test: Drug transporter systems in vitro; assay type: in vitro ADME
RET = RET (Homo sapiens, UniProt P07949); test: In vitro biochemical and/or cellular kinase assays
FLT-3 = FLT-3 (Homo sapiens, UniProt P36888); test: In vitro biochemical and/or cellular kinase assays
CYP1A2 = CYP1A2 (Homo sapiens, UniProt P05177); test: Metabolic pathways in vitro: effect of CYP inhibition on cabozantinib metabolite formation; assay type: in vitro ADME
[7] = final PopPK model parameter estimate
[8] = final PopPK model parameter estimate, RCC patients and healthy volunteers

Chain of P-gp (P08183 whole entry): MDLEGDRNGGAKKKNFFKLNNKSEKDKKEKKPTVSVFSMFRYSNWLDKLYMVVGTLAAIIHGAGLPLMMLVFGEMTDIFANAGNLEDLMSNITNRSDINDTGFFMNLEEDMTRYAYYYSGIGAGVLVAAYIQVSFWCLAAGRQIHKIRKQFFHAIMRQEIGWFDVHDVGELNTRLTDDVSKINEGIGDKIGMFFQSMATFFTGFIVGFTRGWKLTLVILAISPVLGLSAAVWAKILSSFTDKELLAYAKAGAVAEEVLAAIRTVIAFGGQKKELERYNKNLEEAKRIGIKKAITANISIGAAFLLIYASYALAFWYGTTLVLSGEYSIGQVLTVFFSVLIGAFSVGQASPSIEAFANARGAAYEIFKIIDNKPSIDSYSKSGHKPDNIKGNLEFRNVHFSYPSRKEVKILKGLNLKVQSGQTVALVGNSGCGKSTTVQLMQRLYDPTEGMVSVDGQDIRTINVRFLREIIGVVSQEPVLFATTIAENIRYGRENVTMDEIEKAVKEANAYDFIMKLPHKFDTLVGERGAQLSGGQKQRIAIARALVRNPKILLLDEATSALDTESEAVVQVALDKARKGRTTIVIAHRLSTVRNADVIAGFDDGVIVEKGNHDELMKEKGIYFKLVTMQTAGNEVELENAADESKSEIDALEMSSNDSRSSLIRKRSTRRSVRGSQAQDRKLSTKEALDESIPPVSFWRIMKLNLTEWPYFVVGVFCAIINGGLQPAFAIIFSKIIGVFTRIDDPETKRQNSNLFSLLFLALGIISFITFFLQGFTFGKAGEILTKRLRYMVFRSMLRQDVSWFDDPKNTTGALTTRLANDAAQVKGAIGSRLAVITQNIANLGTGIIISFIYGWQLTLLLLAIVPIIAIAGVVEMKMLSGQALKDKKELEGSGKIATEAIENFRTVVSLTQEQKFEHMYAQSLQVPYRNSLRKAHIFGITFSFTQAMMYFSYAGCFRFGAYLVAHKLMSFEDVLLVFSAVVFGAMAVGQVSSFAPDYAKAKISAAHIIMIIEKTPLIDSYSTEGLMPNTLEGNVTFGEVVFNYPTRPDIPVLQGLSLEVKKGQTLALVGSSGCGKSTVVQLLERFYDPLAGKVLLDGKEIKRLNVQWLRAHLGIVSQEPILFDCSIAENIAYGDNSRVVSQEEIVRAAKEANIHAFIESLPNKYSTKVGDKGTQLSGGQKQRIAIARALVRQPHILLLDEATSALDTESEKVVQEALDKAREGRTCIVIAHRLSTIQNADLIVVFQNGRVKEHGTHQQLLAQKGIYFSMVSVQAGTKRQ
Chain of ROS1 (P08922 28-2347): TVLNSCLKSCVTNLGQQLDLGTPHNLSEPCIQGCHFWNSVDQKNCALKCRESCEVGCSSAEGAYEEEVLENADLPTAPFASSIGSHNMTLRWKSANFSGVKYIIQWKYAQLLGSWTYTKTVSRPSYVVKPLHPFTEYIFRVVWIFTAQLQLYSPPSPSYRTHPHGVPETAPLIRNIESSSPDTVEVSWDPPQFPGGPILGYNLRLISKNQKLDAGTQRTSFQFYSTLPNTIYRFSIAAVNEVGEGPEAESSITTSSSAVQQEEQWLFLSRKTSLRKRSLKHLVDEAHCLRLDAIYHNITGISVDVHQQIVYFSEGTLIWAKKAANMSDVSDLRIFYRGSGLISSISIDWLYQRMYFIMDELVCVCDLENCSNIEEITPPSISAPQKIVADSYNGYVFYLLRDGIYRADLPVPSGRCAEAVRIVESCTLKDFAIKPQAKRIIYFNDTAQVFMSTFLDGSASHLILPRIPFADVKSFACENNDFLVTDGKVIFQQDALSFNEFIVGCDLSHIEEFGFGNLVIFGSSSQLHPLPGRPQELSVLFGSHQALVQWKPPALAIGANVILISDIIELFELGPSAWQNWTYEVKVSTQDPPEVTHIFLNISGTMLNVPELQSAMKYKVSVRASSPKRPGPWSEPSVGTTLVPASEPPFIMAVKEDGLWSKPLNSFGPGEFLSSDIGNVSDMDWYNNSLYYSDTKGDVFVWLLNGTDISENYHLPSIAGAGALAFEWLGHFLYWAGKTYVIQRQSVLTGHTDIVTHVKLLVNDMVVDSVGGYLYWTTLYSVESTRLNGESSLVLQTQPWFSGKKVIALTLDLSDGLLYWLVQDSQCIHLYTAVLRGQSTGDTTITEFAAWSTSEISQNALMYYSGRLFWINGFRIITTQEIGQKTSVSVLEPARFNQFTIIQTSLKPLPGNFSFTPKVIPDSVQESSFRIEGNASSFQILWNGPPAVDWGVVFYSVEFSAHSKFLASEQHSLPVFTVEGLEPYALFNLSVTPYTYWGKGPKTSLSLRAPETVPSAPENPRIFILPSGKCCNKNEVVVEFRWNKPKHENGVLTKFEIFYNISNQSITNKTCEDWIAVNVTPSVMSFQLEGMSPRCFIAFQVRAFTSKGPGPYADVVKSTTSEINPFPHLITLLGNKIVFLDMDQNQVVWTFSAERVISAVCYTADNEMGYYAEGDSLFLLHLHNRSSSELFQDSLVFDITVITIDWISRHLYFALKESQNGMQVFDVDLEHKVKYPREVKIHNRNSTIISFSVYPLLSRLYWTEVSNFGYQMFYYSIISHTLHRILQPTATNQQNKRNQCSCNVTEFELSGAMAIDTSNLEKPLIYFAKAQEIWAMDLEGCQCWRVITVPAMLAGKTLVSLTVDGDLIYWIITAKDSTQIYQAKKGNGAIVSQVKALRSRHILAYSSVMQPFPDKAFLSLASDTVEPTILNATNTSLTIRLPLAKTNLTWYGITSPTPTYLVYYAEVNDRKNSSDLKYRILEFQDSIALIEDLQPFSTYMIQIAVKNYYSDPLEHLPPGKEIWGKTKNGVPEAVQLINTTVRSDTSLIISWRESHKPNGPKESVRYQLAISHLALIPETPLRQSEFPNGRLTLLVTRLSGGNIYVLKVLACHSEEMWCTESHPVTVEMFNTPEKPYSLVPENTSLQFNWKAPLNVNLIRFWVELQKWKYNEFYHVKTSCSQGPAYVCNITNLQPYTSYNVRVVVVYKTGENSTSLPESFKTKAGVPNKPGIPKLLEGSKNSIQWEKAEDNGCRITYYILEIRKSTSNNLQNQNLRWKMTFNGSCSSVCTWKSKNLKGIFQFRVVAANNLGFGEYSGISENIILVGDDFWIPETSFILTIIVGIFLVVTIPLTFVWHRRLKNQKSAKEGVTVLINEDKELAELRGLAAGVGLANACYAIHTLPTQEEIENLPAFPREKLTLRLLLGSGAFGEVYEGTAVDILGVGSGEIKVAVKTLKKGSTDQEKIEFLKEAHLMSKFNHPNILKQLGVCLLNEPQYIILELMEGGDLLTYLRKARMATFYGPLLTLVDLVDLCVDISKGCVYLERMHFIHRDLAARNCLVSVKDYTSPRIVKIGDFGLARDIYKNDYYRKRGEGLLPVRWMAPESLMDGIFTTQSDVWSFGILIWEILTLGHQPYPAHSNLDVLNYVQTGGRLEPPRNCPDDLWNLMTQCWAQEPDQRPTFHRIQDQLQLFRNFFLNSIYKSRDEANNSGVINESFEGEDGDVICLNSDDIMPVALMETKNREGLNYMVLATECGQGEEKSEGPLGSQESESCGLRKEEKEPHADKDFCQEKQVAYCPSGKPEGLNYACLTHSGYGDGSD
Chain of VEGFR-3 (P35916 25-1363): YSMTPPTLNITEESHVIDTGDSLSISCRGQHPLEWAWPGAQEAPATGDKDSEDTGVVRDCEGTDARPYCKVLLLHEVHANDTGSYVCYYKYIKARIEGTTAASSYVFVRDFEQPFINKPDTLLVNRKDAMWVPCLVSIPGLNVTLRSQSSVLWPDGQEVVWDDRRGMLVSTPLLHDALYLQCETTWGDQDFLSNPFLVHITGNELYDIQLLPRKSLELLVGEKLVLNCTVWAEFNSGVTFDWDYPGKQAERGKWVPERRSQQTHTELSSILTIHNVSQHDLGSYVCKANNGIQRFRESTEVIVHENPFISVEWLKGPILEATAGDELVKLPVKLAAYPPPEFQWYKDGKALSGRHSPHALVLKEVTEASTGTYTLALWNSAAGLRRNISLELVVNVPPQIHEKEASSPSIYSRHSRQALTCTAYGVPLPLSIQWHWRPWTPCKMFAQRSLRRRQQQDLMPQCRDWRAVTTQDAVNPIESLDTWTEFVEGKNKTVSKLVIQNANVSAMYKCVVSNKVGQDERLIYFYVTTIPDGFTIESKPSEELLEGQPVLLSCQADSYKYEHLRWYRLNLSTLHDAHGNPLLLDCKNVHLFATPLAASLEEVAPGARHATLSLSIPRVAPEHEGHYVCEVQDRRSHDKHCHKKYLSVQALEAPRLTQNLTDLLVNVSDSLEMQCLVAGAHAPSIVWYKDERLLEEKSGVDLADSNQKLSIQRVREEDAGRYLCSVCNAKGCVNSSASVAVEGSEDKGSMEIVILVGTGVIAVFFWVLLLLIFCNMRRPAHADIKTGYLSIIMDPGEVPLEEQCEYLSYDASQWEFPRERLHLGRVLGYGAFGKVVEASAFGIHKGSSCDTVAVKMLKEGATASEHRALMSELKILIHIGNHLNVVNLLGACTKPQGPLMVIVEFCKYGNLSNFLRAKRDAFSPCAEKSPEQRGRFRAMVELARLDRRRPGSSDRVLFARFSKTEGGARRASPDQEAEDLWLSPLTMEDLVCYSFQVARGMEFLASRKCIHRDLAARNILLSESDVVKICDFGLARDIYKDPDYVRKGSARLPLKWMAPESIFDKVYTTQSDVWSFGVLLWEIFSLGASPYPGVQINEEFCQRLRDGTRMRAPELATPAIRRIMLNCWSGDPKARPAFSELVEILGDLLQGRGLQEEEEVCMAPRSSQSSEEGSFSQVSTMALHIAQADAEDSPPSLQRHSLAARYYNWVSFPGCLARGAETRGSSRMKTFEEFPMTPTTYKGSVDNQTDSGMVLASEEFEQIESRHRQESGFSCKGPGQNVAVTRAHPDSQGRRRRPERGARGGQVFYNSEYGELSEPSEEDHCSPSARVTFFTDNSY

With `COc1cc2nccc(Oc3ccc(NC(=O)C4(C(=O)Nc5ccc(F)cc5)CC4)cc3)c2cc1OC` [cabozantinib] the Clastogenicity (mouse) was “not clastogenic”, the “Doses at which female fertility was significantly reduced” value (male and female rats; female) was no less than 1 mg/kg/day and the “Doses at which male fertility was significantly compromised” value (male and female rats; male) was no less than 2.5 mg/kg/day. The “Inhibition of tyrosine kinase activity” value (VEGFR-3) was “inhibits”, the “Effect of inhibition of CYP2B6 on cabozantinib metabolite formation” value (CYP2B6) was “no effect” and the “Effect of inhibition of CYP2D6 on cabozantinib metabolite formation” value (CYP2D6) was “no effect”. The “Inhibition of tyrosine kinase activity” value (ROS1) was “inhibits”, the “Mortality dose as multiple of the clinical dose of 60 mg/day based on body surface area” value (juvenile rats; 1 mg/kg/day) was “approximately 0.16 times” and the “Doses at which mortalities occurred” value (juvenile rats; Postnatal Day 12 through 35 or 70) was no less than 1 mg/kg/day. For the same compound, the “Effect of inhibition of CYP2E1 on cabozantinib metabolite formation” value (CYP2E1) was “no effect”, the “Dose with visceral malformations and variations (reduced spleen size, missing lung lobe)” value (pregnant rabbits) was 3 mg/kg and the “Doses without adverse maternal toxicity or effect on pregnancy, parturition, lactation, offspring survival, growth or postnatal development” value [1] was “up to 0.3 mg/kg/day”. For the same compound, the Fatal hemorrhages (patients; human, in vivo) was “Fatal hemorrhages also occurred”, the Fatal perforations (patients; human, in vivo) was “Fatal perforations occurred” and the Fatal thrombotic events (patients; human, in vivo) was “Fatal thrombotic events occurred”. For the same compound, the “Reversible Posterior Leukoencephalopathy Syndrome (RPLS)” value (patients; human, in vivo) was “occurred”, the Overdosage case findings (patients; twice the intended dose (200 mg daily) of another formulation for nine days) was “Grade 3 memory impairment, Grade 3 mental status changes, Grade 3 cognitive disturbance, Grade 2 weight loss, and Grade 1 increase in BUN” and the “Induction of CYP1A1 mRNA” value (CYP1A1 mRNA) was “inducer”. The “Diarrhea, grade 3 or 4” value ([2]; all-causality) was 10%, the “Fatigue, grade 3 or 4” value ([2]; all-causality) was 6% and the “Hematologic adverse events, grade 3 or 4” value ([2]; all-causality) was 3%. For the same compound, the “Hypertension, grade 3 or 4” value ([2]; all-causality) was 28%, the “Palmar-plantar erythrodysesthesia, grade 3 or 4” value ([2]; all-causality) was 8% and the “All-causality grade 3 or 4 adverse events” value ([2]; in vivo) was 67%. For the same compound, the “Median OS” value ([2]; in vivo) was 30.3 months, the ORR ([2]; in vivo) was 46% and the “OS adjusted HR, cabozantinib vs sunitinib” value ([2]; in vivo) was 0.80. The “Reduction in rate of progression or death vs sunitinib” value ([2]; in vivo) was 34%, the “Median PFS” value ([2]; untreated mRCC, intermediate or poor risk) was 8.2 months and the “Predicted steady-state average concentration” value ([3]; 20 mg dose level) was 375 ng/mL. For the same compound, the “Predicted steady-state average concentration” value ([3]; 40 mg dose level) was 750 ng/mL, the “Predicted steady-state average concentration” value ([3]; 60 mg dose level) was 1125 ng/mL and the “CL/F (oral clearance), PopPK estimate” value ([3]; White male) was 2.23 L/h. The “Vc/F, PopPK estimate” value ([3]; White male) was 81.5 L, the “ALAG1 (depot 1 absorption lag time)” value [3, 7] was 0.459 h and the “ALAG2 (depot 2 absorption lag time)” value [3, 7] was 16.8 h. For the same compound, the “Q/F (apparent flow between plasma (central) and peripheral compartments)” value [3, 7] was 14.2 L/h, the “Vp/F (apparent volume of distribution, peripheral compartment)” value [3, 7] was 213 L and the “Ka2 (depot 2 absorption rate constant)” value [3, 8] was 0.102 h⁻¹. For the same compound, the “Ka (depot 1 absorption rate constant)” value [3, 8] was 0.568 h⁻¹, the “CL/F (apparent plasma clearance)” value ([3]; final PopPK model parameter estimate, White male) was 2.23 L/h and the “Inter-individual variability of CL/F” value ([3]; human, in vivo) was 46 % CV. For the same compound, the “Lower CL/F in Asian vs White subjects” value ([3]; human, in vivo) was 27%, the “Lower CL/F in female vs male subjects” value ([3]; human, in vivo) was 21% and the Vd/F ([3]; human, plasma, oral, final PopPK model parameter estimate, White male, read-out: Vc/F (apparent volume of distribution, central compartment)) was 81.5 L. The Vd ([3]; human, plasma, oral, subject, read-out: Terminal phase volume of distribution, PopPK estimate) was 319 L, the “Effect of inhibition of CYP2A6 on cabozantinib metabolite formation” value (CYP2A6) was “no effect” and the “Radioactivity recovered in feces” value ([4]; 48-day collection) was “Approximately 54%”. For the same compound, the “Radioactivity recovered in urine” value ([4]; 48-day collection) was roughly 27%, the “Unchanged cabozantinib in urine” value ([4]; 72 hour collection) was “not detectable” and the “Unchanged cabozantinib, share of total radioactivity in feces” value ([4]; 72 hour collection) was 43%. For the same compound, the “Total administered radioactivity recovered” value ([4]; within a 48-day collection period, single 140 mg dose) was “Approximately 81%”, the “Inhibition of tyrosine kinase activity” value (TRKB) was “inhibits” and the “EC50 of best Emax model for rate of PD or death” value [5] was 0.1 µg/mL. The “Protein bound in human plasma” value (human plasma) was no less than 99.7%, the “Changes in cardiac wave form morphology or new rhythms” value (QTc interval) was “not observed” and the “Effect of age, sex, race, mild to moderate renal impairment on pharmacokinetics” value ([6]; age 32-86 years, eGFR ≥30 mL/min/1.73 m^2) was “did not result in a clinically relevant difference”. For the same compound, the “Clearance (CL/F) at steady-state” value ([6]; human, in vivo) was 2.2 L/h, the Predicted terminal half-life ([6]; human, in vivo) was “approximately 99 hours” and the Tmax ([6]; human, plasma, oral administration, read-out: Median time to peak plasma concentration (Tmax)) was 2 to 3 h. The “Steady state achieved by” value ([6]; repeat daily dosing at 140 mg) was no more than 15 days, the “Inhibition of P-gp transport activities” value (P-gp) was “inhibitor” and the P-gp substrate status (P-gp) was “not a substrate”. For the same compound, the “Inhibition of tyrosine kinase activity” value (RET) was “inhibits”, the “Inhibition of tyrosine kinase activity” value (FLT-3) was “inhibits” and the “Effect of inhibition of CYP1A2 on cabozantinib metabolite formation” value (CYP1A2) was “no effect”.
